Experimental findings from patent US7582767B2 (Biovitrum AB (publ.), priority 2005, dated 2009) are described below.

For test [1], the target named is T1, 5-HT2c (Homo sapiens, UniProt P28335).
T1 sequence (P28335 33-458): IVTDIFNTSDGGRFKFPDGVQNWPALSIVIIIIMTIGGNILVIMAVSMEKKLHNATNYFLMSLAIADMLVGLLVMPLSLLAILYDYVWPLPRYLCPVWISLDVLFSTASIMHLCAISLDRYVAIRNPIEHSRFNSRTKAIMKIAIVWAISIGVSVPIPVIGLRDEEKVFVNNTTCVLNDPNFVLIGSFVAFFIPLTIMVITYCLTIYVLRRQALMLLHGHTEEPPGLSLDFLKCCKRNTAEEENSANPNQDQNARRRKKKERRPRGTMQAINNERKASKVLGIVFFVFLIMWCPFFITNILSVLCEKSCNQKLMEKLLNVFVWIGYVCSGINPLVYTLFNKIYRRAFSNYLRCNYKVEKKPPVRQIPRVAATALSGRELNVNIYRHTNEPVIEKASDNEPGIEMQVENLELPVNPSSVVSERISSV
Put plainly: Selectivity binding 5-HT2c.

Test [2] deals with food intake of DIO rats. Put plainly: Effect on food intake, 28 days oral treatment of DIO rats. It counts as in vivo, male Sprague-Dawley rats. The conditions noted are these: for food intake versus vehicle, Dunnets t-test: first seven days. The protocol: (c) Effect on Body Weight and on Food Intake
The corresponding solution was used as vehicle. The stability of the solutions were checked upon storage for 14 days. Solutions were formulated twice a week and stored in freezer. The solutions were analysed for the actual concentrations and found similar between the two occasions.
Hundred (100) male Sprague-Dawley rats were raised on high fat diet at Scanbur BK AB (Sollentuna, Sweden) which upon their arrival to the Biovitrum animal care facility weighed approximately 700 g (17 weeks old). The rats were conditioned and weighed for approximately three weeks after their arrival. The rats were singly stored in standard cages during constant room conditions (temp 22+/−1° C., humidity 40-60%, 12 h light/dark cycle, lights off at 10 am). The rats received the same high fat diet (45 kcal % fat, 4.7 kcal/g; D12451) as they received at Scanbur. The diets were purchased from Research Diets, Inc., New Jersey, USA, consisted of pellets and were stored under dry and cold conditions.
The high fat fed animals which gained the highest weight were selected. This population weighed 799±60 g. The selected forty-eight (48) rats were randomized and divided into […] treatment groups in order to obtain as homogeneous groups according to body weight as possible. Each treatment group consisted of 12 rats: Group 1—vehicle, Group 2—Example 1-5 mg/kg (11 μmol/kg), Group 3—Example 1-15 mg/kg (33 μmol/kg), Group 4—Example 1-30 mg/kg (66 μmol/kg). Further nine (9) rats were allocated for measurement of compound exposure and pharmacokinetics at each dose group in parallel for the seventh and the twentyninth days. The study was started by baseline measurements for five days in order to accustom the rats to the procedure and to the experimentalists. Test compound was administered orally once a day at 9-10 am in a volume of 2.5 ml/kg i.e.an average of 2 ml per (800 g) rat. Pellets and body were weighed each day in connection with the injections. Water bottles were weighed once a week. The weighings were done with a computer-assisted Mettler Toledo PR 5002 balance. All data were transferred into an Excel template.
The food and water intake, and body weight data are calculated in gram and % of basal and expressed as mean +/−SD and/or +/−SEM.
The data of body weight and food intake was statistically analysed by two-way univariate ANOVA with repeated measurements (treatment x time) followed by one-way ANOVA for comparison between treatment groups at selected time points. Clinical chemistry measurements were analysed by one-way ANOVA followed by Dunnetts t-test for test of significance of treatment groups versus vehicle control. A difference between two groups was considered significant if P<0.05. Statistical evaluation was performed using SPSS for Windows.

Read-outs that look alike come from different tables or passages of the source.

A word on the Ki: it is a dissociation constant, usually derived from enzyme kinetics or from competition with a known ligand. Turning to `COc1ccc(C)cc1NS(=O)(=O)c1cc(OC2CCNCC2)c2occc2c1` [Example 1], the Ki is 2300 nM in test [1] (figure in parentheses after the bound, read-out: 5-HT2c Selectivity Binding (Ki), value in parentheses) and > 1000 nM in test [1] (read-out: 5-HT2c Selectivity Binding (Ki)). The “food intake versus vehicle, Dunnets t-test” value in test [2] (15 mg/kg p.o.) and in test [2] (30 mg/kg p.o.) was “significantly different from vehicle” throughout. The “food intake, days 8 to 14 and rest of the treatment period” value in test [2] (all dose groups, P<0.076) was “remained decreased during the rest of the treatment period, although not statistically significant”. Further, the “food intake during the first seven days” value in test [2] (all dose groups, repeated ANOVA P<0.001) is given as “decreased food intake significantly”. Further, the minimum effective dose in test [2] (food intake, p.o.) is recorded as 15 mg/kg.
